Assay results published in ChEMBL document CHEMBL1201862, “PubChem BioAssay data set” (2004).
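Assay format: 96-well plates, 48-hour exposure. Abbreviation: GI50, concentration required for 50% inhibition of growth.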 Active and inactive are the calls of the source. No stated cut-off is given here; in the data, active = GI50 up to about 1.1 µM and inactive = higher.

Tests used:
Assay in all cases: DTP human tumour cell line panel, 48 h
UACC-62 = tested on: UACC-62
M14 = tested on: M14
KM12 = tested on: KM12
NCI-H23 = tested on: NCI-H23
HOP-62 = tested on: HOP-62
Malme-3M = tested on: Malme-3M
LOX IMVI = tested on: LOX IMVI
CCRF-CEM = tested on: CCRF-CEM
SN12C = tested on: SN12C
SNB-19 = tested on: SNB-19
NCI-H522 = tested on: NCI-H522
ACHN = tested on: ACHN
OVCAR-3 = tested on: OVCAR-3
SF-539 = tested on: SF-539
SK-MEL-5 = tested on: SK-MEL-5
EKVX = tested on: EKVX
HCT-15 = tested on: HCT-15
K562 = tested on: K562
SW-620 = tested on: SW-620

Compound	GI50 (UACC-62)	GI50 (M14)	GI50 (KM12)	GI50 (NCI-H23)	GI50 (HOP-62)	GI50 (Malme-3M)	GI50 (LOX IMVI)	GI50 (CCRF-CEM)	GI50 (SN12C)	GI50 (SNB-19)	GI50 (NCI-H522)	GI50 (ACHN)	GI50 (OVCAR-3)	GI50 (SF-539)	GI50 (SK-MEL-5)	GI50 (EKVX)	GI50 (HCT-15) [µM]	GI50 (K562)	GI50 (SW-620)
O/N=C/c1ccc(O)c(O)c1	93.3 µM (inactive)	97.5 µM (inactive)	> 100 µM (inactive)	> 100 µM (inactive)	> 100 µM (inactive)	> 100 µM (inactive)	67.8 µM (inactive)	7.38 µM (inactive)	> 100 µM (inactive)	> 100 µM (inactive)	15.2 µM (inactive)	39.9 µM (inactive)	31.8 µM (inactive)	> 100 µM (inactive)	62.8 µM (inactive)	75.7 µM (inactive)	44.1	55.8 µM (inactive)	15.4 µM (inactive)
CC1=CC(=O)C(=O)C2=C1OC1(C2)C(C)CCC2C3(C)CCC(O)C(C)(C)C3CCC21C (centres undefined)	15.8 µM (inactive)	18.8 µM (inactive)	15.7 µM (inactive)	15.8 µM (inactive)	19.2 µM (inactive)	19.8 µM (inactive)	16.7 µM (inactive)	14 µM (inactive)	> 100 µM (inactive)	16.8 µM (inactive)	15.2 µM (inactive)	16.9 µM (inactive)	18.6 µM (inactive)	> 100 µM (inactive)	18 µM (inactive)		19.4	17 µM (inactive)	22.1 µM (inactive)
O=c1oc2c3ccc4ccccc4c3n(Cc3nc4ccccc4[nH]3)c2c2ccccc12	3.28 µM (inactive)	4.71 µM (inactive)	> 64.4 µM (inactive)	4.95 µM (inactive)	4.16 µM (inactive)	> 100 µM (inactive)	2.26 µM (inactive)	1.07 µM (active)	3.72 µM (inactive)	4.5 µM (inactive)	4.42 µM (inactive)	3.89 µM (inactive)	7.08 µM (inactive)	3.54 µM (inactive)		23.6 µM (inactive)	1.37	2.47 µM (inactive)	2.2 µM (inactive)
O=C1/C(=N\O)C2CCC1C2 (centres undefined)	> 100 µM (inactive)	> 100 µM (inactive)	> 100 µM (inactive)	> 100 µM (inactive)	> 100 µM (inactive)	> 100 µM (inactive)	> 100 µM (inactive)	> 100 µM (inactive)	> 100 µM (inactive)	> 100 µM (inactive)	> 100 µM (inactive)	> 100 µM (inactive)	> 100 µM (inactive)	> 100 µM (inactive)	> 100 µM (inactive)	> 100 µM (inactive)	> 100	> 100 µM (inactive)	> 100 µM (inactive)
C=CSCCC(N)C(=O)O (centres undefined)	> 100 µM (inactive)	> 100 µM (inactive)	> 100 µM (inactive)	> 100 µM (inactive)	> 100 µM (inactive)	> 100 µM (inactive)	> 100 µM (inactive)	> 100 µM (inactive)	> 100 µM (inactive)	> 100 µM (inactive)	> 100 µM (inactive)	> 100 µM (inactive)	> 100 µM (inactive)	> 100 µM (inactive)	> 100 µM (inactive)	> 100 µM (inactive)	> 100	> 100 µM (inactive)	> 100 µM (inactive)
CCN1/C(=C/C(C)=C/c2sc3ccccc3[n+]2CC)Sc2ccccc21	0.0927 µM (active)	0.212 µM (active)	0.0641 µM (active)	0.0415 µM (active)	0.122 µM (active)	0.37 µM (active)	0.135 µM (active)	0.0261 µM (active)	0.234 µM (active)	0.0214 µM (active)	0.0574 µM (active)	0.295 µM (active)	0.172 µM (active)	0.265 µM (active)	0.0925 µM (active)	0.0885 µM (active)	0.395	0.034 µM (active)	0.122 µM (active)
CN(C)CC/C(=N\Nc1c(Cl)cccc1Cl)c1ccccc1	15.8 µM (inactive)	18.2 µM (inactive)	17 µM (inactive)	15.6 µM (inactive)	29.4 µM (inactive)	21 µM (inactive)	17.3 µM (inactive)	28.2 µM (inactive)	28.7 µM (inactive)	35.1 µM (inactive)	17.5 µM (inactive)	16 µM (inactive)	22.8 µM (inactive)	16.9 µM (inactive)	15.1 µM (inactive)	30.3 µM (inactive)	17.7	20.6 µM (inactive)	17.6 µM (inactive)
O=c1cc(-c2ccc(O)cc2)oc2cc(O)cc(O)c12 [APIGENIN]	24.8 µM (inactive)	44.4 µM (inactive)	23.1 µM (inactive)	17.8 µM (inactive)	43.6 µM (inactive)	33.9 µM (inactive)	21.4 µM (inactive)	20.4 µM (inactive)	30.4 µM (inactive)	29.7 µM (inactive)	15.8 µM (inactive)	15.1 µM (inactive)	24.2 µM (inactive)	> 10 µM (inactive)	25.4 µM (inactive)	33.5 µM (inactive)	28.1	32.7 µM (inactive)	
